Key:
C8166 = test: Cytotoxicity against C8166 cells assessed as reduction in total cell number; type: cell-based; conditions: Homo sapiens
[1] = Therapeutic index, IC50 for C8166 cells to EC50 for HIV1; type: cell-based; conditions: human, read-out: Ratio IC50/EC50
[2] = system: Human immunodeficiency virus 1; test: Antiviral activity against HIV1 in C8166 cells assessed as inhibition of syncytia formation; type: functional, organism-based; conditions: Human immunodeficiency virus 1, C8166

Row | EC50 [2] | SMILES | IC50 (C8166) | selectivity ratio [1]
1 | 0.009 µM | Cc1cn([C@H]2C[C@H](N=[N+]=N)[C@@H](CO)O2)c(=O)[nH]c1=O | 500 µM | 55600
2 | 0.24 µM | COc1cc([C@@H]2c3cc4c(cc3[C@H](NC(=O)OC[C@@H]3C=C[C@H](n5cc(C)c(=O)[nH]c5=O)O3)[C@H]3COC(=O)[C@H]23)OCO4)cc(OC)c1OC | 3.39 µM | 14.4
3 | 4.39 µM | COc1cc2c(cc1OC)[C@@H](NC(=O)OC[C@@H]1C=C[C@H](n3cc(C)c(=O)[nH]c3=O)O1)[C@H]1COC(=O)[C@@H]1[C@@H]2c1cc(OC)c(OC)c(OC)c1 | > 295 µM | > 67.1
4 | 1.05 µM | COc1cc2c(cc1OC)[C@@H](C#N)[C@H]1COC(=O)[C@@H]1[C@@H]2c1cc(OC)c(OC)c(OC)c1 | 138 µM | 131
5 | 0.29 µM | COc1cc([C@@H]2c3cc4c(cc3[C@H](NC(=O)OC[C@@H]3C=C[C@H](n5cc(C)c(=O)[nH]c5=O)O3)[C@H]3COC(=O)[C@H]23)OCO4)cc(OC)c1O | 104 µM | 355
6 | 0.17 µM | COc1cc([C@@H]2c3cc4c(cc3[C@@H](NC(=O)OC[C@@H]3C=C[C@H](n5cc(C)c(=O)[nH]c5=O)O3)[C@H]3COC(=O)[C@H]23)OCO4)cc(OC)c1O | 79.1 µM | 467
7 | 5.46 µM | COc1cc([C@@H]2c3cc4c(cc3[C@@H](NC(=O)OC[C@@H]3C=C[C@H](n5cc(C)c(=O)[nH]c5=O)O3)[C@H]3COC(=O)[C@H]23)OCO4)cc(OC)c1OC | 68.2 µM | 12.5
8 | 46.9 µM | COc1cc2c(cc1OC)[C@@H](C(=O)O)[C@H]1COC(=O)[C@@H]1[C@@H]2c1cc(OC)c(OC)c(OC)c1 | > 437 µM | > 9.31

Row | SMILES | EC50 [2] | IC50 (C8166) | selectivity ratio [1]
9 | COc1cc([C@@H]2c3cc4c(cc3[C@H](O)[C@H]3COC(=O)[C@H]23)OCO4)cc(OC)c1OC [PODOFILOX] | 0.0029 µM | < 0.15 µM | 53.3

— ChEMBL document CHEMBL1139159, “Synthesis and anti-HIV-1 activities of novel podophyllotoxin derivatives” (Bioorg Med Chem Lett, 2007)
